Source: patent US20100056565A1, “Heterocyclic Derivatives as M3 Muscarinic Receptors” (priority 2007, published 2010)
pKi: −log10 of the molar value. Counter-ions that a name gives are not always drawn.

What follows are molecules tested against T1, Recombinant human M3 receptor (Homo sapiens, UniProt P20309) (assay: biochemical). Details: M3, SPA format assay; read-out: Ki in the SPA format assay.
T1 construct: expressed in transfected cells; host or cells: CHO-K1 cells (membranes)
T1 sequence (P20309 whole entry): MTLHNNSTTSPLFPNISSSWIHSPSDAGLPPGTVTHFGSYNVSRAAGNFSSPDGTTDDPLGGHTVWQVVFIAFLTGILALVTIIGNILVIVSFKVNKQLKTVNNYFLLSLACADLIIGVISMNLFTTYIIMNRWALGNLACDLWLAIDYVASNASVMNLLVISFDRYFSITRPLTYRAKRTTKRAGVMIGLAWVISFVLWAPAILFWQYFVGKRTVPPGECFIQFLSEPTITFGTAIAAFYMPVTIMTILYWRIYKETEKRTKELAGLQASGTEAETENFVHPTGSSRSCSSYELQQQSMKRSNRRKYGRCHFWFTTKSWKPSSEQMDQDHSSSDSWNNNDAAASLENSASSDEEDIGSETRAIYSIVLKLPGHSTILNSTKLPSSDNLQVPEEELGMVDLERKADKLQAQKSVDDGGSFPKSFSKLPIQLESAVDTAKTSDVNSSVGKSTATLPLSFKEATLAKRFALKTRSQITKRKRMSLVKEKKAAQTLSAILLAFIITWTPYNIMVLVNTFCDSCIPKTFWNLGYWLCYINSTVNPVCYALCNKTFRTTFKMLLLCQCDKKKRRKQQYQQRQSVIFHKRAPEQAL
Assay type: binding
For `O[C@](c1ccccc1)(c1ncc(C[N+]23CCC(CC2)[C@@H](Oc2ccc(F)cc2)C3)o1)C1CCCCC1` [Example 66, (R)-1-[2-((R)—Cyclohexyl-hydroxy-phenyl-methyl)-oxazol-5-ylmethyl]-3-(4-fluoro-phenoxy)-1-azonia-bicyclo[2.2.2]octane; bromide], the pKi was 10.05.

Same assay, conditions: SPA format; read-out: M3 Ki (SPA format)
Work on `OC(c1ccccc1)(c1ccccc1)c1ncc(C[N+]23CCC(CC2)[C@@H](Oc2cccc(Cl)c2)C3)o1` [Example 62, (R)-3-(3-Chloro-phenoxy)-1-[2-(hydroxy-diphenyl-methyl)-oxazol-5-ylmethyl]-1-azonia-bicyclo[2.2.2]octane; bromide] yielded a pKi greater than 8.30. With `OC(c1ccccc1)(c1ccccc1)c1ncc(C[N+]23CCC(CC2)[C@@H](Oc2ccc(Cl)cc2)C3)o1` [Example 63, (R)-3-(4-Chloro-phenoxy)-1-[2-(hydroxy-diphenyl-methyl)-oxazol-5-ylmethyl]-1-azonia-bicyclo[2.2.2]octane; bromide] the pKi was greater than 8.30. Work on `O[C@](c1ccccc1)(c1ncc(C[N+]23CCC(CC2)[C@@H](Oc2ccc(Cl)cc2)C3)o1)C1CCCCC1` [Example 64, (R)-3-(4-Chloro-phenoxy)-1-[2-((R)-cyclohexyl-hydroxy-phenyl-methyl)-oxazol-5-ylmethyl]-1-azonia-bicyclo[2.2.2]octane; bromide] yielded a pKi greater than 8.30. `O[C@](c1ccccc1)(c1ncc(C[N+]23CCC(CC2)[C@@H](Oc2cccc(Cl)c2)C3)o1)C1CCCCC1` [Example 65, (R)-3-(3-Chloro-phenoxy)-1-[2-((R)-cyclohexyl-hydroxy-phenyl-methyl)-oxazol-5-ylmethyl]-1-azonia-bicyclo[2.2.2]octane; bromide] was tested, and the pKi was greater than 8.30. `O[C@](c1ccccc1)(c1ncc(C[N+]23CCC(CC2)[C@@H](Oc2ccc(F)cc2)C3)o1)C1CCCCC1` [Example 66, (R)-1-[2-((R)—Cyclohexyl-hydroxy-phenyl-methyl)-oxazol-5-ylmethyl]-3-(4-fluoro-phenoxy)-1-azonia-bicyclo[2.2.2]octane; bromide] gave a pKi greater than 8.30. `O[C@](c1ccccc1)(c1ncc(C[N+]23CCC(CC2)[C@@H](Oc2cccc(F)c2)C3)o1)C1CCCCC1` [Example 67, (R)-1-[2-((R)—Cyclohexyl-hydroxy-phenyl-methyl)-oxazol-5-ylmethyl]-3-(3-fluoro-phenoxy)-1-azonia-bicyclo[2.2.2]octane; bromide] gave a pKi greater than 8.30. Molecule `OC(c1ccccc1)(c1ccccc1)c1ncc(C[N+]23CCC(CC2)[C@@H](Sc2ccccc2)C3)o1` [Example 68, 1-[2-(Hydroxy-diphenyl-methyl)-oxazol-5-ylmethyl]-3-phenylsulfanyl-1-azonia-bicyclo[2.2.2]octane; bromide] has a pKi greater than 8.30. In the case of `O[C@](c1ccccc1)(c1ncc(C[N+]23CCC(CC2)C(Sc2ccccc2)C3)o1)C1CCCCC1` (stereo partly drawn) [Example 69, 1-[2-(R)-cyclohexyl-hydroxy-phenyl-methyl)-oxazol-5-ylmethyl]-3-phenylsulfanyl-1-azonia-bicyclo[2.2.2]octane; formate], the pKi was greater than 8.30. Work on `O[C@](c1ccccc1)(c1nnc(C[N+]23CCC(CC2)[C@@H](Sc2ccccc2)C3)o1)C1CCCCC1` [Example 71, 1-[5-((R)—Cyclohexyl-hydroxy-phenyl-methyl)-[1,3,4]oxadiazol-2-ylmethyl]-3-phenylsulfanyl-1-azonia-bicyclo[2.2.2]octane; bromide] yielded a pKi greater than 8.30. `OC(c1ccccc1)(c1ccccc1)c1ncc(C[N+]23CCC(CC2)[C@@H](Oc2ccc(F)cc2)C3)o1` [Example 72, (R)-3-(4-Fluoro-phenoxy)-1-[2-(hydroxy-diphenyl-methyl)-oxazol-5-ylmethyl]-1-azonia-bicyclo[2.2.2]octane; bromide] gave a pKi greater than 8.30. In the case of `OC(c1ccccc1)(c1ccccc1)c1ncc(C[N+]23CCC(CC2)[C@@H](Oc2cccc(F)c2)C3)o1` [Example 73, (R)-3-(3-Fluoro-phenoxy)-1-[2-(hydroxy-diphenyl-methyl)-oxazol-5-ylmethyl]-1-azonia-bicyclo[2.2.2]octane; bromide], the pKi was greater than 8.30. For `OC(c1ccccc1)(c1ccccc1)c1ncc(C[N+]23CCC(CC2)[C@@H](Oc2cc(Cl)cc(Cl)c2)C3)o1` [Example 74, (R)-3-(3,5-dichloro-phenoxy)-1-[2-(hydroxy-diphenyl-methyl)-oxazol-5-ylmethyl]-1-azonia-bicyclo[2.2.2]octane; bromide], the pKi was less than 7.70. Work on `OC(c1ccccc1)(c1ccccc1)c1ncc(C[N+]23CCC(CC2)[C@@H](Oc2cccc(C(F)(F)F)c2)C3)o1` [Example 75, (R)-1-[2-[Hydroxy-diphenyl-methyl)-oxazol-5-ylmethyl]-3-(3-trifluoromethyl-phenoxy)-1-azonia-bicyclo[2.2.2]octane; bromide] yielded a pKi greater than 8.30. `OC(c1ccccc1)(c1ccccc1)c1ncc(C[N+]23CCC(CC2)[C@@H](Oc2ccc(F)c(Cl)c2)C3)o1` [Example 76, (R)-3-(3-chloro-4-fluoro-phenoxy)-1-[2-(hydroxy-diphenyl-methyl)-oxazol-5-ylmethyl]-1-azonia-bicyclo[2.2.2]octane; bromide] showed a pKi greater than 8.30. With `OC(c1ccccc1)(c1ccccc1)c1ncc(C[N+]23CCC(CC2)[C@@H](Oc2cccc(Cl)c2Cl)C3)o1` [Example 77, (R)-3-(2,3-dichloro-phenoxy)-1-[2-(hydroxy-diphenyl-methyl)-oxazol-5-ylmethyl]-1-azonia-bicyclo[2.2.2]octane; bromide] the pKi was less than 7.70. Molecule `OC(c1ccccc1)(c1ccccc1)c1ncc(C[N+]23CCC(CC2)[C@@H](Oc2ccc(Cl)c(Cl)c2)C3)o1` [Example 78, (R)-3-(3,4-dichloro-phenoxy)-1-[2-(hydroxy-diphenyl-methyl)-oxazol-5-ylmethyl]-1-azonia-bicyclo[2.2.2]octane; bromide] has a pKi greater than 8.30. `OC(c1ccccc1)(c1ccccc1)c1ncc(C[N+]23CCC(CC2)[C@@H](Oc2ccc4c(c2)OCO4)C3)o1` [Example 79, (R)-3-(Benzo[1,3]dioxal-5-yloxy)-1-[2-(hydroxy-diphenyl-methyl)-oxazol-5-ylmethyl]-1-azonia-bicyclo[2.2.2]octane; bromide] showed a pKi greater than 8.30. In the case of `N#Cc1cccc(O[C@H]2C[N+]3(Cc4cnc(C(O)(c5ccccc5)c5ccccc5)o4)CCC2CC3)c1` [Example 80, (R)-3-(3-cyano-phenoxy)-1-[2-(hydroxy-diphenyl-methyl)-oxazol-5-ylmethyl]-1-azonia-bicyclo[2.2.2]octane; bromide], the pKi was greater than 8.30. `O[C@](c1ccccc1)(c1ncc(C[N+]23CCC(CC2)C(c2ccccc2)C3)o1)C1CCCCC1` (stereo partly drawn) [Example 88, 1-[2-((R)—Cyclohexyl-hydroxy-phenyl-methyl)-oxazol-5-ylmethyl]-3-phenyl-1-azonia-bicyclo[2.2.2]octane; bromide] gave a pKi of 7.70 to 8.30. `OC(c1ccccc1)(c1ccccc1)c1ncc(C[N+]23CCC(CC2)[C@H](COc2ccccc2)C3)o1` [Example 92, (S)-1-[2-(Hydroxy-diphenyl-methyl)-oxazol-5-ylmethyl]-3-phenoxymethyl-1-azonia-bicyclo[2.2.2]octane; bromide] was tested, and the pKi was 7.70 to 8.30. `OC(c1ccccc1)(c1ccccc1)c1noc(C[N+]23CCC(CC2)[C@H](COc2ccccc2)C3)n1` [Example 93, (S)-1-[3-(Hydroxy-diphenyl-methyl)-[1,2,4]oxadiazol-5-ylmethyl]-3-phenoxymethyl-1-azonia-bicyclo[2.2.2]octane; chloride] was tested, and the pKi was greater than 8.30. `OC(c1ccccc1)(c1ccccc1)c1noc(C[N+]23CCC(CC2)[C@@H](Oc2cccc(F)c2)C3)n1` [Example 94, (R)-3-(3-Fluoro-phenoxy)-1-[3-(hydroxy-diphenyl-methyl)-[1,2,4]oxadiazol-5-ylmethyl]-1-azonia-bicyclo[2.2.2]octane; chloride] was tested, and the pKi was greater than 8.30. `O[C@](c1ccccc1)(c1ncc(C[N+]23CCC(CC2)[C@@H](OC2CCCCO2)C3)o1)C1CCCCC1` (stereo partly drawn) [Example 96, (R)-1-[2-((R)—Cyclohexyl-hydroxy-phenyl-methyl)-oxazol-5-ylmethyl]-3-(tetrahydro-pyran-2-yloxy)-1-azonia-bicyclo[2.2.2]octane; bromide] was tested, and the pKi was greater than 8.30. Work on `OC(c1ccccc1)(c1ccccc1)c1ncc(C[N+]23CCC(CC2)[C@@H](Sc2ccc(F)cc2)C3)o1` [Example 97, (R)-3-(4-Fluoro-phenylsulfanyl)-1-[2-(hydroxy-diphenyl-methyl)-oxazol-5-ylmethyl]-1-azonia-bicyclo[2.2.2]octane; bromide] yielded a pKi greater than 8.30. `OC(c1ccccc1)(c1ccccc1)c1ncc(C[N+]23CCC(CC2)[C@@H](Sc2cccc(F)c2)C3)o1` [Example 98, (R)-3-(3-Fluoro-phenylsulfanyl)-1-[2-(hydroxy-diphenyl-methyl)-oxazol-5-ylmethyl]-1-azonia-bicyclo[2.2.2]octane; bromide] showed a pKi greater than 8.30. `OC(c1ccccc1)(c1ccccc1)c1ncc(C[N+]23CCC(CC2)[C@@H](Sc2ccc(F)c(F)c2)C3)o1` [Example 99, (R)-3-(3,4-Difluoro-phenylsulfanyl)-1-[2-(hydroxy-diphenyl-methyl)-oxazol-5-ylmethyl]-1-azonia-bicyclo[2.2.2]octane; bromide] showed a pKi greater than 8.30. Work on `O[C@](c1ccccc1)(c1ncc(C[N+]23CCC(CC2)[C@@H](CSc2ccccc2)C3)o1)C1CCCCC1` [Example 100, (R)-1-[2-((R)—Cyclohexyl-hydroxy-phenyl-methyl)-oxazol-5-ylmethyl]-3-phenylsulfanylmethyl-1-azonia-bicyclo[2.2.2]octane; bromide] yielded a pKi greater than 8.30. `OC(c1ccccc1)(c1ccccc1)c1ncc(C[N+]23CCC(CC2)[C@@H](Oc2cccs2)C3)o1` [Example 102, (R)-1-[2-(Hydroxy-diphenyl-methyl)-oxazol-5-ylmethyl]-3-(thiophen-2-yloxy)-1-azonia-bicyclo[2.2.2]octane; bromide] showed a pKi of 7.70 to 8.30. Molecule `OC(c1ccccc1)(c1ccccc1)c1noc(C[N+]23CCC(CC2)[C@@H](Oc2ccccc2)C3)n1` [Example 103, (R)-1-[3-(Hydroxy-diphenyl-methyl)-[1,2,4]oxadiazol-5-ylmethyl]-3-phenoxy-1-azonia-bicyclo[2.2.2]octane; chloride] has a pKi greater than 8.30. With `Cc1ccc(O[C@H]2C[N+]3(Cc4nc(C(O)(c5ccccc5)c5ccccc5)no4)CCC2CC3)cc1Cl` [Example 104, (R)-3-(3-Chloro-4-methyl-phenoxy)-1-[3-(hydroxy-diphenyl-methyl)-[1,2,4]oxadiazol-5-ylmethyl]-1-azonia-bicyclo[2.2.2]octane; chloride] the pKi was greater than 8.30.
